# Patent US20020048271A1, “Methods and composition for restoring conformational stability of a protein of the p53 family” (priority 1998, published 2002)
# Molecular target: T1, wild-type p53 DBD (Homo sapiens, UniProt P04637)
# T1 construct: Recombinant DBD (residues 94-312) from wild-tvpe and mutant p53 proteins; made in house
# Assay: p53 DBD thermostabilization assay (ELISA for mAb1620 epitope)
# Assay type: biochemical
# Details: 0.5 ng of p53 DBD heated at 45° C. for 30 minutes; read-out: SC50: concentration of compound required to preserve 50% of the epitope for mAb 1620
# Procedure: Thermostabilization Assay. Recombinant DBD (residues 94-312) from wild-tvpe and mutant p53 proteins and FLAG-tagged p53 DBD were prepared as described (Pavletich et al., 1993, Genes and Dev. 7, 2556-2564; Bullock et al., 1997, supra.). Mutant proteins used were 143A, 173A, 175S. 249S, and 273H. A number of small molecule organic compounds were tested. Compound stocks were dissolved in DMSO at 10 mg/ml and diluted prior to use. The proteins (0.25-1.0 ng/well) were diluted in a buffer containing 25 mM HEPES, pH 6.8, 150 mM KCl, 10 mM dithiothreitol and attached in 50 ul to Reacti-Bind microtiter plates (Pierce) for 35 minutes on ice. The wells were rinsed with 25 mM HEPES, pH 6.8, 150 mM KCl, compound or diluted DMSO vehicle added, and the plates incubated at the indicated temperatures. Incubation was terminated by placing the wells on ice; ELISA assays performed while maintaining the plates on ice in order to avoid further alterations of the epitopes. Wells were blocked for 1 hour with cold 5 percent skim milk (Difco) in HEPES/KCl buffer prior to addition of the primary antibodies. Monoclonal antibodies mAb1620, mAb240 (Calbiochem) and anti-FLAG M2 antibody (Eastman Kodak Company) were diluted at 1:100-1:250 in HEPES/KCl and added at 100 ul/well for 30 minutes. The plates were rinsed twice with cold HEPES/KCl buffer and incubated with horseradish peroxidase (HRP)-conjugated anti-mouse IgG (Boehringer Mannheim) for another 30 minutes. The HRP signal was developed using TMB developer (Pierce) and the optical density of the signal was read on a BioRad microplate reader set at 450 nm.
# T1 sequence (P04637 94-312): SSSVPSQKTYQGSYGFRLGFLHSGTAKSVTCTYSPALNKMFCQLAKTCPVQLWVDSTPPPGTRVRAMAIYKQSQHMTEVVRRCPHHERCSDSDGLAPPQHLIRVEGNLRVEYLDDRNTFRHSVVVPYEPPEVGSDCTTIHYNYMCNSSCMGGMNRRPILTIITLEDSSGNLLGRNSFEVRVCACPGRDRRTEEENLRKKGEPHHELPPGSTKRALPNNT
row,Structure (SMILES),EC50 [µM]
1,C(=C\c1nc(NCCCN2CCOCC2)c2ccccc2n1)/c1ccccc1 [Compound 1A],36
2,C(=C\c1nc(N2CCOCC2)c2ccccc2n1)/c1ccccc1 [Compound 1B],> 300
3,c1ccc2c(NCCCN3CCOCC3)c3cccnc3cc2c1 [Compound 2A],120
4,c1ccc2c(NCCN3CCOCC3)c3cccnc3cc2c1 [Compound 2B],> 300

# More lines, now with the values ahead:
row,EC50 [µM],Structure (SMILES)
1,50,CCN(CC)CCCNc1c2ccccc2cc2ncccc12 [Compound 3A]
2,120,CCN(CC)CCCCNc1c2ccccc2cc2ncccc12 [Compound 3B]
3,38,CC(CN(C)C)CN1c2ccccc2Sc2ccccc21 (stereo not shown) [Compound 4A]
4,> 300,CN(C)CCCN1c2ccccc2Sc2ccccc21 [Compound 4B]

# Tested on: mutant mouse p53
# Assay: not given
# Details: Brown et al., 1997; cited from earlier work
row,Structure (SMILES),Concentration restoring nuclear localization of mutant mouse p53 [mM]
1,OCC(O)CO [Glycerol],600

# Tested on: mutant p53 (position 173 or position 249) in Saos-2 cells
# Assay: WAF1 and p53 expression, Western blot, Saos-2 cells with transfected mutant p53
# Assay type: cell-based
# Details: position 173 or 249 mutant; Compound X for 16 hours
# Procedure: WAF1 and p53 Expression. […] Protein concentrations were determined using Bradford reagent (BioRad) and 5 or 10 ug of cell lysate were loaded onto 8-16 percent gradient polyacrylamide/SDS gels (Novex). […] The blots were washed for one hour in three changes of Tris buffered saline with 0.1 percent Tween 20, before the addition of the secondary antibody, HRP-conjugated anti-mouse IgG. The bands were visualized using Renaissance ECL (DuPont) and exposure to Hyperfilm ECL (Amersham Life Science).
row,Structure (SMILES),WAF1 expression in Saos-2 cells with mutant p53
1,COc1cccc2c1C(=O)c1c(O)c3c(c(O)c1C2=O)C[C@@](O)(C(=O)CO)C[C@@H]3O[C@H]1C[C@H](N)[C@H](O)[C@H](C)O1 [Adriamycin],did not induce WAF-1 expression
